Measurements as given in patent US9113629B2, “4-amino-6-(4-substituted-phenyl)-picolinates and 6-amino-2-(4-substituted-phenyl)-pyrimidine-4-carboxylates and their use as herbicides” (DOW AGROSCIENCES LLC, priority 2013, dated 2015).
Like-named read-outs stand apart in the source and are kept apart here.

Experiments:
[1] = system: Key Broadleaf Weed and Crop Species; experiment: Post-emergent Test II herbicidal activity (Table 5); format: in vivo; conditions: post-emergence, 336 h, post-emergent, 14 days after application; for pest or weed control at 70 g/ha: 70 g ai/ha; for pest or weed control at 140 g/ha: 140 g ai/ha
Procedure, shortened: (§1)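 Greenhouse-grown plants at first or second true leaf stage were sprayed post-emergence with compound in acetone/DMSO-based aqueous spray containing crop oil concentrate and surfactant, at 187 L/ha, highest rate plus ½× to 1/16× dilutions. After 14 d, injury was scored visually versus untreated plants, 0 (none) to 100% (complete kill).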

[2] = system: Key Grass and Sedge Weeds as well as Grass Crops; experiment: Post-emergent Test II herbicidal activity (Table 6); format: in vivo; conditions: post-emergence, 336 h; for pest or weed control at 70 g/ha: application rate 70 g ai/ha; for pest or weed control at 140 g/ha: application rate 140 g ai/ha
Procedure, shortened: as §1

[3] = ABUTH: velvetleaf (Abutilon theophrasti), read-out: Visual Growth Reduction (%) 14 Days After Application ABUTH
[4] = AMARE: redroot pigweed (Amaranthus retroflexus), read-out: Visual Growth Reduction (%) 14 Days After Application AMARE
[5] = BRSNN: oilseed-rape, canola (Brassica napus), read-out: Visual Growth Reduction (%) 14 Days After Application BRSNN
[6] = CHEAL: lambsquarters (Chenopodium album), read-out: Visual Growth Reduction (%) 14 Days After Application CHEAL
[7] = EPHHL: wild poinsettia (Euphorbia heterophylla), read-out: Visual Growth Reduction (%) 14 Days After Application EPHHL
[8] = HELAN: sunflower (Helianthus annuus), read-out: Visual Growth Reduction (%) 14 Days After Application HELAN
[9] = VIOTR: wild pansy (Viola tricolor), read-out: Visual Growth Reduction (%) 14 Days After Application VIOTR
[10] = Triticum aestivum, TRZSS (wheat), read-out: Visual Growth Reduction (%) 14 Days After Application, TRZSS
[11] = CYPES: yellow nutsedge (Cyperus esculentus), read-out: Visual Growth Reduction (%) 14 Days After Application, CYPES
[12] = DIGSA: crabgrass (Digitaria sanguinalis), read-out: Visual Growth Reduction (%) 14 Days After Application, DIGSA
[13] = ECHCG: barnyardgrass (Echinochloa crus-galli), read-out: Visual Growth Reduction (%) 14 Days After Application, ECHCG
[14] = ORYSA: rice (Oryza sativa), read-out: Visual Growth Reduction (%) 14 Days After Application, ORYSA
[15] = SETFA: giant foxtail (Setaria faberi), read-out: Visual Growth Reduction (%) 14 Days After Application, SETFA
[16] = SORVU: grain sorghum (Sorghum vulgare), read-out: Visual Growth Reduction (%) 14 Days After Application, SORVU
[17] = ZEAMX: maize, corn (Zea mays), read-out: Visual Growth Reduction (%) 14 Days After Application, ZEAMX

`Nc1cc(-c2ccc(Br)cc2F)nc(C(=O)O)c1Cl` [Compound 74] showed a pest or weed control at 70 g/ha [1, 3] of 95 to 100%, a pest or weed control at 140 g/ha [1, 3] of 95 to 100% and a pest or weed control at 70 g/ha [1, 4] of 95 to 100%. For the same molecule, the pest or weed control at 140 g/ha [1, 4] was 95 to 100%, the pest or weed control at 70 g/ha [1, 5] was 85 to 94% and the pest or weed control at 140 g/ha [1, 5] was 85 to 94%. It also gave a pest or weed control at 70 g/ha [1, 6] of 95 to 100%, a pest or weed control at 140 g/ha [1, 6] of 95 to 100% and a pest or weed control at 70 g/ha [1, 7] of 95 to 100%. It also gave a pest or weed control at 140 g/ha [1, 7] of 95 to 100%, a pest or weed control at 70 g/ha [1, 8] of 95 to 100% and a pest or weed control at 140 g/ha [1, 8] of 95 to 100%. It also gave a pest or weed control at 70 g/ha [1, 9] of 95 to 100%, a pest or weed control at 140 g/ha [1, 9] of 95 to 100% and a pest or weed control at 70 g/ha [2, 10] of 45 to 59%. It also gave a pest or weed control at 140 g/ha [2, 10] of 60 to 74%, a pest or weed control at 70 g/ha [2, 11] of 95 to 100% and a pest or weed control at 140 g/ha [2, 11] of 95 to 100%. It also gave a pest or weed control at 70 g/ha [2, 12] of 85 to 94%, a pest or weed control at 140 g/ha [2, 12] of 85 to 94% and a pest or weed control at 70 g/ha [2, 13] of 85 to 94%. The pest or weed control at 140 g/ha [2, 13] was 85 to 94%, the pest or weed control at 70 g/ha [2, 14] was 0 to 29% and the pest or weed control at 140 g/ha [2, 14] was 30 to 44%. The pest or weed control at 70 g/ha [2, 15] was 75 to 84%, the pest or weed control at 140 g/ha [2, 15] was 85 to 94% and the pest or weed control at 70 g/ha [2, 16] was 85 to 94%. The pest or weed control at 140 g/ha [2, 16] was 85 to 94%, the pest or weed control at 70 g/ha [2, 17] was 75 to 84% and the pest or weed control at 140 g/ha [2, 17] was 75 to 84%.
